Measured values reported in patent US12492182B2, “Hydroxytriazine compounds and pharmaceutical use thereof” (Japan Tobacco Inc., priority 2015, dated 2025).
Read-outs that look alike come from different tables or passages of the source.

Columns and labels:
human mPGES-1 = target: T1, human mPGES-1 (Homo sapiens, UniProt O14684); experiment: Evaluation of human mPGES-1 enzyme inhibitory activity (HTRF measurement of PGE2); format: biochemical; details: IC50 value; microsome fraction of CHO-S cells expressing human mPGES-1, PGH2 substrate, PGE2 by HTRF; read-out: humans mPGES-1 enzyme inhibitory activity
T1 construct: made in house; host or cells: Chinese hamster ovary-derived cells (FreeStyle CHO-S), transient transfection of pcDNA3.1(+)/human mPGES-1; microsome fraction
T1 sequence (O14684 1-152): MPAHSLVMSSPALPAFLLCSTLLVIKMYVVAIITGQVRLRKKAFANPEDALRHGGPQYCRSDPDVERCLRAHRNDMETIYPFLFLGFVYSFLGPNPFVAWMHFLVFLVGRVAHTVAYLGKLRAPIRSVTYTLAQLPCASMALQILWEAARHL
How it was run: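 Enzyme source was a microsome fraction from CHO-S cells transfected with human mPGES-1, diluted to 5 μg/mL protein in reduced GSH (12.5 mmol/L KPB), preincubated with compound for 10 min at room temperature with 2% final DMSO. Reaction started with PGH2 and run 45 seconds at room temperature. PGE2 measured by HTRF.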

[1] = Measurement of solubility in Britton-Robinson buffer solution (pH 8.5) containing 0.5 W/V % polysorbate 80; format: physicochemical; details: Britton-Robinson buffer pH 8.5 containing 0.5 W/V % polysorbate 80, 20° C., 18 hr
Experimental: Experimental Example 5: Measurement of Solubility
(2) Britton-Robinson Buffer Solution (pH 8.5) Containing 0.5 W/V % Polysorbate 80
The test article was weighted in glass microtube, and dispersed in Britton-Robinson buffer solution (pH 8.5, 1.5 mL) containing 0.5 W/V % polysorbate 80 to prepare a suspension. The suspension was shaked at 20° C. for 18 hr, and filtered through a membrane filter (0.45 μm), and the filtrate was used as a sample.
(3) Preparation of Standard Solution and Sample Solution, and Measurement of Solubility
Sample solution was prepared by appropriately diluting sample with a mixture of water/acetonitrile (1:1). Standard solution was prepared by precisely weighting the test article, and then diluting the test article with a mixture of water/acetonitrile (1:1). The standard solution and sample solution were analyzed by liquid chromatography, and the test article content of the sample solution was calculated according to external standard method, based on which the solubility was determined.

A549 cell = experiment: Evaluation of PGE2 production inhibitory action using A549 cell (IL-1β stimulated); format: cell-based, human
How it was run: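 A549 cells (human lung cancer) in F-12K with 2% FBS were preincubated with test article for 30 min, then stimulated with IL-1β (1 ng/mL final) for 18 hr at 37 °C; 0.5% DMSO final. Supernatant PGE2 was measured by HTRF against a standard curve; inhibition is relative to vehicle and unstimulated blank wells.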

[2] = Homo sapiens, A549, A549 cell, recombinant human IL-1β stimulation, read-out: cell PGE2 production inhibitory activity (IC50 value)
[3] = Homo sapiens, A549, 18 h, IC50 value, A549 cell, recombinant IL-1β 1 ng/mL, 18 hr, PGE2 in supernatant, read-out: cell PGE2 production inhibitory activity
[4] = A549 cell, recombinant human IL-1β stimulation, read-out: cell PGE2 production inhibitory activity (IC50 value)

IC50 (human mPGES-1) [nM]	0.5% polysorbate 80 solubility (%) at pH 8.5 [1] [%]	IC50 (A549 cell; [2]) [nM]	IC50 (A549 cell; [3]) [nM]	IC50 (A549 cell; [4]) [nM]	SMILES
2.9	0.109	1.9			CCC[C@H](C)Oc1ccc(-c2nc(O)nc(-c3cc(CNC(=O)C(CC)(CC)CF)ccc3Cl)n2)cn1 [Example 131]
4		1.5			CCC[C@@H](C)Oc1ccc(-c2nc(O)nc(-c3cc(CNC(=O)C(CC)(CC)C(F)F)ccc3Cl)n2)cn1 [Example 123]
0.5			2.9		Cc1ccc(-c2nc(O)nc(-c3cc(CNC(=O)C(C)(C)C(F)(F)F)ccc3Cl)n2)cc1C(C)(C)C [Example 54]
3.6			26		COC(C)(C)c1cccc(-c2nc(O)nc(-c3cc(CNC(=O)C(C)(C)C(F)(F)F)ccc3Cl)n2)c1 [Example 44]
1.1		25			CCC[C@H](C)Oc1ccc(-c2nc(O)nc(-c3cc(CNC(=O)C(C)(C)OC)ccc3Cl)n2)cn1 [Example 102]
0.7	0.057	3.4			CC(C)c1cccc(-c2nc(O)nc(-c3cc(CNC(=O)C4(C(F)(F)F)CCCCC4)ccc3Cl)n2)c1 [Example 71, 1-trifluoromethylcyclohexanecarboxylic acid 4-chloro-3-[4-hydroxy-6-(3-isopropylphenyl)-1,3,5-triazin-2-yl]benzylamide]
1.8			100		COc1ccc(-c2nc(O)nc(-c3cc(CNC(=O)C4(OC)CCCCC4)ccc3Cl)n2)cn1 [Example 28]
2			14		COc1ccc(-c2nc(O)nc(-c3cc(CNC(=O)C(C)(C)C(F)(F)F)ccc3Cl)n2)cc1C(C)C [Example 35]
0.5		79			COCCCCOc1ccc(-c2nc(O)nc(-c3cc(CNC(=O)C(C)(C)C(F)(F)F)ccc3Cl)n2)cn1 [Example 61]
5.4				2.1	CCC(OC)(C(=O)NCc1ccc(Cl)c(-c2nc(O)nc(-c3ccc(Cl)c(C(C)C)c3)n2)c1)C(F)(F)F (centres unmarked) [Example 139]
7.7		2.1			CCC[C@@H](C)Oc1ccc(-c2nc(O)nc(-c3cc(CNC(=O)C(CC)(OC)C(F)(F)F)ccc3Cl)n2)cn1 (single isomer, unassigned) [Example 142]
1.7			49		CCCOc1cc(C)cc(-c2nc(O)nc(-c3cc(CNC(=O)C(C)(C)C(F)(F)F)ccc3Cl)n2)c1 [Example 10]
2.4		6.5			CCC[C@H](C)Oc1ccc(-c2nc(O)nc(-c3cc(CNC(=O)C(CC)(CC)OC)ccc3Cl)n2)cn1 [Example 103]
5.2		2.9			CC(C)(C)c1cc(-c2nc(O)nc(-c3cc(CNC(=O)C(C)(C)C(F)(F)F)ccc3Cl)n2)ccc1Cl [Example 87]

The next lines start with the molecule.

SMILES	IC50 (human mPGES-1) [nM]	0.5% polysorbate 80 solubility (%) at pH 8.5 [1] [%]	IC50 (A549 cell; [2]) [nM]	IC50 (A549 cell; [3]) [nM]	IC50 (A549 cell; [4]) [nM]
CC(C)(C(=O)NCc1ccc(Cl)c(-c2nc(O)nc(-c3ccc(OC4CCC4)nc3)n2)c1)C(F)(F)F [Example 59]	0.3			53	
CCC[C@@H](C)Oc1ccc(-c2nc(O)nc(-c3cc(CNC(=O)C(CC)(CC)OC)ccc3Cl)n2)cn1 [Example 79, 2-ethyl-N-(4-chloro-3-{4-hydroxy-6-[6-((R)-1-methylbutoxy)pyridin-3-yl]-1,3,5-triazin-2-yl}benzyl)-2-methoxybutanamide]	4.6	0.157	2.6		
Cc1cc(-c2nc(O)nc(-c3cc(CNC(=O)C(C)(C)C(F)(F)F)ccc3Cl)n2)cc(C(C)(C)C)c1 [Example 11]	0.2			17	
CC(C)c1cccc(-c2nc(O)nc(-c3cc(CNC(=O)C4(C)CCCCC4)ccc3Cl)n2)c1 [Example 16]	0.4			34	
CC(C)c1cccc(-c2nc(O)nc(-c3cc(CNC(=O)C4(C(F)(F)F)CCCC4)ccc3Cl)n2)c1 [Example 52, 1-trifluoromethylcyclopentanecarboxylic acid 4-chloro-3-[4-hydroxy-6-(3-isopropylphenyl)-1,3,5-triazin-2-yl]benzylamide]	1.1			6	
CCCCCCOc1ccc(-c2nc(O)nc(-c3cc(CNC(=O)[C@@](C)(OC)C(F)(F)F)ccc3Cl)n2)cn1 [Example 83]	5		2.7		
CCCCCCOc1ccc(-c2nc(O)nc(-c3cc(CNC(=O)C(C)(C)CF)ccc3Cl)n2)cn1 [Example 84]	2		6		
CCCCC(C)(C)C(=O)NCc1ccc(Cl)c(-c2nc(O)nc(-c3ccc(OCC)nc3)n2)c1 [Example 51]	0.6			410	
CC(C)c1cc(-c2nc(O)nc(-c3cc(CNC(=O)C4(C(F)(F)F)CCCC4)ccc3Cl)n2)ccc1Cl [Example 55]	1.9			2.6	
CC(C)c1cccc(-c2nc(O)nc(-c3cc(CNC(=O)C4(CF)CCCCCC4)ccc3Cl)n2)c1 [Example 111]	1.5		54		
COc1ccc(-c2nc(O)nc(-c3cc(CNC(=O)C4(C(F)(F)F)CCCCC4)ccc3Cl)n2)cn1 [Example 30]	0.8			33	
CCOc1cccc(-c2nc(O)nc(-c3cc(CNC(=O)C(C)(C)C(F)(F)F)ccc3Cl)n2)c1 [Example 9]	0.7			37	
CCC(C)(C)c1cccc(-c2nc(O)nc(-c3cc(CNC(=O)C(C)(C)C(F)(F)F)ccc3Cl)n2)c1 [Example 43]	3.5			6.5	
CCCOc1cccc(-c2nc(O)nc(-c3cc(CNC(=O)C(C)(C)C(F)(F)F)ccc3Cl)n2)c1 [Example 1]	0.9			27	
CCC(CC)(C(=O)NCc1ccc(Cl)c(-c2nc(O)nc(-c3cccc(C(C)(C)C)c3)n2)c1)C(F)F [Example 117]	1.6		4.2		
CC1(c2cccc(-c3nc(O)nc(-c4cc(CNC(=O)C5(CF)CCCCC5)ccc4Cl)n3)c2)CC1 [Example 100]	0.9		43		
CCOc1ccc(-c2nc(O)nc(-c3cc(CNC(=O)C4(C(F)(F)F)CCCCC4)ccc3Cl)n2)cn1 [Example 33]	0.8			11	
CC(C)c1cc(-c2nc(O)nc(-c3cc(CNC(=O)C(C)(C)C(F)(F)F)ccc3Cl)n2)cc(C(C)C)c1 [Example 18]	5.3			260	
CC1(c2cccc(-c3nc(O)nc(-c4cc(CNC(=O)C(C)(C)C(F)(F)F)ccc4Cl)n3)c2)CC1 [Example 49, N-(4-chloro-3-{4-hydroxy-6-[3-(1-methylcyclopropyl)phenyl]-1,3,5-triazin-2-yl}benzyl)-3,3,3-trifluoro-2,2-dimethylpropionamide]	0.5			7.3	
CC(C)c1cc(-c2nc(O)nc(-c3cc(CNC(=O)C4(C(F)F)CCCC4)ccc3Cl)n2)ccc1Cl [Example 97]	3.8		9		
CO[C@](C)(C(=O)NCc1ccc(Cl)c(-c2nc(O)nc(-c3ccc(Cl)c(C(C)C)c3)n2)c1)C(F)(F)F [Example 56]	0.7			2.6	
CO[C@@](C)(C(=O)NCc1ccc(Cl)c(-c2nc(O)nc(-c3cccc(C(C)C)c3)n2)c1)C(F)(F)F [Example 74]	1.3		29		
CCC(OC)(C(=O)NCc1ccc(Cl)c(-c2nc(O)nc(-c3cccc(C4(C)CC4)c3)n2)c1)C(F)(F)F (centres unmarked) [Example 138]	1.5				8.4
